Here are results for four compounds from patent US20260001928A1 (CORTERIA PHARMACEUTICALS, priority 2022, published 2026).

Data set [1] in a line: In vitro subcutaneous tissue supernatant (SCts) stability and metabolite identification, rat. Type of data set: in vitro ADME. Also noted: remaining at 2 h: dose or concentration left out as unconfirmed. The conditions noted are these: for remaining at 2 h: male, Sprague Dawley, rat subcutaneous tissue supernatant (SCts), 37° C. On the procedure:
In vitro metabolic stability in subcutaneous tissue supernatant (SCts) was studied in male Sprague Dawley rats. Test compounds were incubated […] for 2 hours at 37° C.
Software aided in vitro metabolite identification on SCts stability samples was performed using either Metabolite Pilot (Sciex) or Biopharma Finder (Thermo). In addition, metabolite identification using Metabolite Pilot was performed on plasma samples of Comp Y following SC administration to rat at 1 mg/kg.

For a further data set, the target named is T1, human CRF2a receptor (Homo sapiens, UniProt Q13324).
T1 construct: expressed in transfected cells; host or cells: TeloHEAC cells
T1 sequence (Q13324 1-411): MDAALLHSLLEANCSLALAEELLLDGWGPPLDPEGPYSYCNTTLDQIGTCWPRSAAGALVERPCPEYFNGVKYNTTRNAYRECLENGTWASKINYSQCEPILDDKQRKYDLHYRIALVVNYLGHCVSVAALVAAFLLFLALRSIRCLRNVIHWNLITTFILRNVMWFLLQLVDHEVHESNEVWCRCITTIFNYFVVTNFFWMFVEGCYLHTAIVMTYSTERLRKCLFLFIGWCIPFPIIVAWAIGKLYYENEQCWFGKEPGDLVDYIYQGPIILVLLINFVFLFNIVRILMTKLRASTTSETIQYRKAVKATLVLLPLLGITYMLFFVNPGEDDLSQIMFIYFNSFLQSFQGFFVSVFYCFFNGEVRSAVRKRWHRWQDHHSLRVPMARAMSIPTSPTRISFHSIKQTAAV
Kind of data set: Activity at human CRF2a receptor, cAMP functional assay in TeloHEAC cells. It is filed as cell-based. The conditions noted are these: TeloHEAC cells stably expressing human CRF2a receptor, relative to urocortin 2 (100 nM = 100%). The procedure, abridged:
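TeloHEAC cells stably expressing human CRF2a (10000 cells/well) were treated with 16-point 1:2 compound dilutions in HBSS/20 mM HEPES with IBMX for 30 min at 37° C. cAMP was read by HTRF (665/620 nm ratio). EC50 was the concentration giving 50% activation, with 100 nM urocortin 2 set as 100%.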

In a further data set the target is T2, CFR1R receptor (Homo sapiens, UniProt P34998).
T2 construct: host or cells: CHO-K1 (clone 2)
T2 sequence (P34998 24-415): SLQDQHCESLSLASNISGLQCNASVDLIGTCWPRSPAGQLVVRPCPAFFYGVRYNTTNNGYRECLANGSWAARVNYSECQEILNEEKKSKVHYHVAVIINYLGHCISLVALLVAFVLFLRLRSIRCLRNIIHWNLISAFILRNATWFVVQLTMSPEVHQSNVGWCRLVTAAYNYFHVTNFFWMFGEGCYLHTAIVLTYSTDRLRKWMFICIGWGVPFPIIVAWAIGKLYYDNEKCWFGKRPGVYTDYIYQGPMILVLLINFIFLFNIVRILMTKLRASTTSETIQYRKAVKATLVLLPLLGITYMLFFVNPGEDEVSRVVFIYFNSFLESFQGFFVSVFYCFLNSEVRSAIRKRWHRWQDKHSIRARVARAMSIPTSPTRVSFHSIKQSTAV
Kind of data set: Activity at anti-target CFR1R receptor, cAMP assay in CRF1R-overexpression CHO-K1 cells. It is filed as cell-based. Particulars: 100% = Sauvagine at 100 nM. In a few lines:
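Clone 2; cryopreserved stocks (10% DMSO); 4000 cells/well final; 100% activation = Sauvagine 100 nM; otherwise as TeloHAEC protocol.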

Data set [2] in a line: Chemical stability in buffer (pH 7.4 / pH 4.5), % purity loss. Type of data set: physicochemical. Particulars: 100 mM phosphate buffer pH 7.4; 40° C. vs 5° C.; 14 or 28 days. In a few lines:
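LC-UV gave % loss after 14 or 28 days of storage at 5 °C or 40 °C. Samples were diluted supernatants from compound incubated 1 h at room temperature at 10 mg/mL target, in 100 mM acetate pH 4.5 or 100 mM phosphate pH 7.4.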

The nature of data set [3]: Pharmacokinetics in male Sprague Dawley rats after subcutaneous administration. Type of data set: in vivo. The conditions noted are these: plasma, rat, SC, 0.05 mg/kg. On the procedure: The pharmacokinetics of UCN-2 derivatives was studied in male Sprague Dawley rats after subcutaneous administration (SC) at 0.05, 0.1, 0.3 or 1 mg/kg. Peptides were formulated as a solution in 10 mM phosphate pH 7.4 buffer+glycerol 85% (2.3% v/v)). […] The supernatant (200 μL) was analyzed by LC-MSMS. Pharmacokinetic parameters were calculated using established non-compartmental methods. The area under the plasma concentration curve versus time (AUC) was determined using Watson LIMS (version 7.6), with linear trapezoidal interpolation in the ascending slope and logarithmic trapezoidal interpolation in the descending slope. The portion of the AUC from the last measurable concentration to infinity was estimated from the equation, Ct/kel, where Ct represents the last measurable concentration and kel is the elimination rate constant. The latter was determined from the concentration curve versus time by linear regression at the terminal phase of the semi-logarithmic plot.

Experiment in data set [4]: as above
Type of data set: in vivo. Particulars: plasma, rat, IV, 0.025 mg/kg.

Structures are written as SMILES. *1 amine or outer side, *2 acyl side, *3 side chain or, on linkers, in order; H or OH if unused. Where a SMILES comes first, the peptide text is derived from it. Side-chain parts run from the residue outwards. [ ]: non-standard residue; d: D form. The star is where a group is joined. C20 diacid = O=C(O)CCCCCCCCCCCCCCCCCCC(=O)*; C18 diacid = O=C(O)CCCCCCCCCCCCCCCCC(=O)*; C16 diacid = O=C(O)CCCCCCCCCCCCCCC(=O)*; γGlu = O=C(O)[C@H](CCC(=O)[*:2])N[*:1]; AEEA = NCCOCCOCC(=O)O; Aib = CC(C)(N)C(=O)O

By amount remaining is commonly meant what is left of the initial amount, in per cent. Consider `CC[C@H](C)[C@H](N)C(=O)N[C@H](C(=O)N[C@@H](CC(C)C)C(=O)N[C@@H](CO)C(=O)N[C@@H](CC(C)C)C(=O)N[C@@H](CC(=O)O)C(=O)N[C@H](C(=O)N1CCC[C@H]1C(=O)N[C@H](C(=O)N[C@@H](CCCCN)C(=O)N[C@@H](CC(C)C)C(=O)N[C@@H](CCCCNC(=O)COCCOCCNC(=O)COCCOCCNC(=O)CC[C@H](NC(=O)CCCCCCCCCCCCCCCCC(=O)O)C(=O)O)C(=O)N[C@@H](CCCCN)C(=O)N[C@H](C(=O)N[C@@H](CC(C)C)C(=O)N[C@@H](CC(C)C)C(=O)N[C@@H](CCC(=O)O)C(=O)N[C@@H](CCC(N)=O)C(=O)N[C@@H](CCC(=O)O)C(=O)N[C@@H](CCCCN)C(=O)N[C@@H](CCC(N)=O)C(=O)N[C@@H](CCCCN)C(=O)N[C@@H](CCCCN)C(=O)N[C@@H](CCC(N)=O)C(=O)N[C@@H](CCCNC(=N)N)C(=O)N[C@@H](CCC(=O)O)C(=O)N[C@@H](CCC(N)=O)C(=O)N[C@@H](C)C(=O)N[C@@H](CCC(=O)O)C(=O)N[C@H](C(=O)N[C@@H](CC(N)=O)C(=O)N[C@@H](CCCCN)C(=O)N[C@@H](CCC(N)=O)C(=O)N[C@H](C(=O)N[C@@H](CC(C)C)C(=O)N[C@@H](C)C(=O)N[C@@H](CCC(N)=O)C(=O)N[C@H](C(N)=O)C(C)C)[C@@H](C)CC)[C@@H](C)O)[C@@H](C)CC)[C@@H](C)CC)C(C)C)C(C)C` [149 (CompY)] (H-IVLSLDVPIKLK([AEEA-AEEA-γGlu-C18 diacid])KILLEQEKQKKQREQAETNKQILAQV-NH2), for which the share remaining at 2 h in data set [1] was found to be 4%.
Still for that read-out and setting: to `CC[C@H](C)[C@H](N)C(=O)N[C@H](C(=O)N[C@@H](CC(C)C)C(=O)N[C@@H](CO)C(=O)N[C@@H](CC(C)C)C(=O)N[C@@H](CC(=O)O)C(=O)N[C@H](C(=O)N1CCC[C@H]1C(=O)N[C@H](C(=O)N[C@@H](CCCCN)C(=O)N[C@@H](CC(C)C)C(=O)N[C@@H](CCCCNC(=O)CC[C@H](NC(=O)CCCCCCCCCCCCCCC(=O)O)C(=O)O)C(=O)N[C@@H](CCC(N)=O)C(=O)N[C@H](C(=O)N[C@@H](CC(C)C)C(=O)N[C@@H](CC(C)C)C(=O)N[C@@H](CCCCN)C(=O)N[C@@H](CCC(N)=O)C(=O)N[C@@H](CCC(=O)O)C(=O)N[C@@H](CCCNC(=N)N)C(=O)N[C@@H](CCC(N)=O)C(=O)N[C@@H](CCCCN)C(=O)N[C@@H](CCCCN)C(=O)N[C@@H](CCC(N)=O)C(=O)N[C@@H](CCCNC(=N)N)C(=O)N[C@@H](CCC(=O)O)C(=O)N[C@@H](CCC(N)=O)C(=O)N[C@@H](C)C(=O)N[C@@H](CCC(=O)O)C(=O)N[C@@H](CCCCN)C(=O)N[C@@H](CC(N)=O)C(=O)N[C@@H](CCCCN)C(=O)N[C@@H](CCC(N)=O)C(=O)N[C@H](C(=O)N[C@@H](CC(C)C)C(=O)N[C@@H](CCC(=O)O)C(=O)N[C@@H](CCC(N)=O)C(=O)N[C@H](C(N)=O)C(C)C)[C@@H](C)CC)[C@@H](C)CC)[C@@H](C)CC)C(C)C)C(C)C` [151 (CompX)] (H-IVLSLDVPIKLK([γGlu-C16 diacid])QILLKQERQKKQREQAEKNKQILEQV-NH2) belongs 0%.
`CC[C@H](C)[C@H](N)C(=O)N[C@H](C(=O)N[C@@H](CC(C)C)C(=O)N[C@@H](CO)C(=O)N[C@@H](CC(C)C)C(=O)N[C@@H](CC(=O)O)C(=O)N[C@@H](C(=O)N1CCC[C@H]1C(=O)N[C@H](C(=O)N[C@@H](CCCCN)C(=O)N[C@@H](CC(C)C)C(=O)N[C@@H](CCCCNC(=O)CC[C@H](NC(=O)CCCCCCCCCCCCCCC(=O)O)C(=O)O)C(=O)N[C@@H](CCC(N)=O)C(=O)N[C@H](C(=O)N[C@@H](CC(C)C)C(=O)N[C@@H](CC(C)C)C(=O)N[C@@H](CCCCN)C(=O)N[C@@H](CCC(N)=O)C(=O)N[C@@H](CCC(=O)O)C(=O)N[C@@H](CCCNC(=N)N)C(=O)N[C@@H](CCC(N)=O)C(=O)N[C@@H](CCCCN)C(=O)N[C@@H](CCCCN)C(=O)N[C@@H](CCC(N)=O)C(=O)N[C@@H](CCCNC(=N)N)C(=O)N[C@@H](CCC(=O)O)C(=O)N[C@@H](CCC(N)=O)C(=O)N[C@@H](C)C(=O)N[C@@H](CCC(=O)O)C(=O)N[C@@H](CCCCN)C(=O)N[C@@H](CC(N)=O)C(=O)N[C@@H](CCCCN)C(=O)N[C@@H](CCC(N)=O)C(=O)N[C@H](C(=O)N[C@@H](CC(C)C)C(=O)N[C@@H](CCC(=O)O)C(=O)N[C@@H](CCC(N)=O)C(=O)N[C@H](C(N)=O)C(C)C)[C@@H](C)CC)[C@@H](C)CC)[C@@H](C)CC)C(C)C)C(C)C` [SEQ ID No. 151, reference compound] (H-IVLSLD[dV]PIKLK([γGlu-C16 diacid])QILLKQERQKKQREQAEKNKQILEQV-NH2): in data set [1] (in vitro soft spot identification, rat SCts), the “major metabolic soft spot, in vitro” value is “N-terminus”.
The EC50 is the concentration giving half of the maximal effect. In general, AUC(0-t) refers to the area under the concentration-time curve up to a stated or last time point. The Cmax is the highest concentration seen after dosing. The Tmax is the time at which the peak concentration occurs. As usually defined, the half-life is the time in which the quantity being followed falls by half. Take `CC[C@H](C)[C@H](NC(C)=O)C(=O)N[C@H](C(=O)N[C@@H](CC(C)C)C(=O)N[C@@H](CO)C(=O)N[C@@H](CC(C)C)C(=O)N[C@@H](CC(=O)O)C(=O)N[C@@H](C(=O)N1CCC[C@H]1C(=O)N[C@H](C(=O)N[C@@H](CCCCN)C(=O)N[C@@H](CC(C)C)C(=O)N[C@@H](CCCCNC(=O)CC[C@H](NC(=O)CCCCCCCCCCCCCCCCCCC(=O)O)C(=O)O)C(=O)N[C@@H](CCCCN)C(=O)N[C@H](C(=O)N[C@@H](CC(C)C)C(=O)N[C@@H](CC(C)C)C(=O)N[C@@H](CCC(=O)O)C(=O)N[C@@H](CCC(N)=O)C(=O)N[C@@H](CCC(=O)O)C(=O)N[C@@H](CCCCN)C(=O)N[C@@H](CCC(N)=O)C(=O)N[C@@H](CCCCN)C(=O)N[C@@H](C)C(=O)N[C@@H](CCC(N)=O)C(=O)N[C@@H](CCCNC(=N)N)C(=O)N[C@@H](CCC(=O)O)C(=O)N[C@@H](CCC(N)=O)C(=O)N[C@@H](C)C(=O)N[C@@H](CCC(=O)O)C(=O)N[C@H](C(=O)N[C@@H](CC(N)=O)C(=O)NC(C)(C)C(=O)N[C@@H](CCC(N)=O)C(=O)N[C@H](C(=O)N[C@@H](CC(C)C)C(=O)N[C@@H](C)C(=O)N[C@@H](CCC(N)=O)C(=O)N[C@H](C(N)=O)C(C)C)[C@@H](C)CC)[C@@H](C)O)[C@@H](C)CC)[C@@H](C)CC)C(C)C)C(C)C` [compound 212] (Ac-IVLSLD[dV]PIKLK([γGlu-C20 diacid])KILLEQEKQKAQREQAETN[Aib]QILAQV-NH2): the EC50 at human CRF2a receptor came to 0.11 nM. The “Emax (% I)” value at CFR1R receptor was determined as 41 % I. In addition, in data set [2], the “Buffer stability pH 7.4 % purity loss” value is on record as 0.3/Not Tested %. Also, in data set [3], the AUC(0-t) came out at 4680 ng·h/mL, the highest level (Cmax) was 154 ng/mL, the Tmax came to 14 h and the half-life was 8 h. In data set [4], this compound showed an AUC(0-t) of 4840 ng·h/mL and a half-life of 8 h.
